From patent publication US11111259B2, “Acylsulfonamide derivatives for treating senescence-associated diseases and disorders” (Unity Biotechnology, Inc., priority 2015, dated 2021)

Legend:
BCL-2 = BCL-2 (Homo sapiens, UniProt P10415); test: BCL-binding assay (AlphaLISA competition, BIM peptide); conditions: 6xHis BCL-2 with biotinylated BIM peptide, 24 hr incubation
Description: (§1) Compounds were prepared as 400× DMSO stock solutions in a 1:4 dilution series then diluted […] in assay buffer (25 mM HEPES pH 7.5, 100 mM NaCl, 0.1% BSA, 0.005% Tween) immediately before use. Aliquots of 400 nM 6xHis-tagged BCL-xL, BCL-2, and BCL-w were thawed on ice and diluted to 0.4 (BCL-XL) or 0.8 (BCL-W and 2) nM in assay buffer. Aliquots of biotinylated BIM and BAD peptides were diluted in assay buffer to 120 and 60 nM respectively. Ten microliters of biotinylated peptide were added to wells of a 96-well PCR plate, followed by ten microliters of inhibitor, then ten microliters of BCL protein, BCL-XL with BAD and BCL-W/2 with BIM. The plates were sealed and incubated at room temperature. After 24 hr, 0.16 μg Anti-His conjugated AlphaLISA acceptor beads were added in 5 μL assay buffer. After one hour at room temperature, 0.16 μg AlphaScreen streptavidin donor beads were added in 5 μL assay buffer and plates were incubated an additional 30 min in the dark. Two 17 μL aliquots of each reaction were plated in a Perkin Elmer 384-well proxiplate, and plates were scanned for using a Perkin Elmer Enspire plate reader. Kd values were calculated in Prism Graph Pad using a one site competitive binding model and previously determined Kd values for each protein peptide pair. […]

BCL-w = molecular target: T1, BCL-w (Homo sapiens, UniProt Q92843); test: as above; conditions: 6xHis BCL-w with biotinylated BIM peptide, 24 hr incubation
T1 sequence (Q92843 1-193): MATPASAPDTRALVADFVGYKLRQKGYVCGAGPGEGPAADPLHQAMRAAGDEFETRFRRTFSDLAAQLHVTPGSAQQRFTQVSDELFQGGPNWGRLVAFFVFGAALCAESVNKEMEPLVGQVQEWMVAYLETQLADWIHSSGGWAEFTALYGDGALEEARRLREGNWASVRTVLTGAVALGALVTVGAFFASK
Description: as §1

[1] = test system: IMR-90 SnC (irradiated senescent IMR90 cells); test: Senolysis assay (CellTiter-Glo viability); type: cell-based, human; conditions: for EC50: Homo sapiens, IMR-90, light or radiation study, 72 h, X-ray irradiated senescent IMR90 cells, viability three days after compound addition; for SI (ratio of EC50 of non-senescent cells to EC50 of senescent cells): IMR90 non-senescent vs senescent cells
Description: IMR90 cells are maintained in DMEM supplemented with 10% FBS. To prepare a senescent population, cells were trypsinized, diluted to 50,000 per mL, and irradiated with 10-15 Gy of X-ray irradiation. Irradiated cells were plated at 5000 cells per well in one third of a 96-well plate and maintained for two weeks prior to the assay. Four days prior to the assay, non-senescent IMR90s were plated at 2500 per well in the second third of the plate. One day prior to the assay, 2500 non-senescent cells were plated in the final third of the plate. Compounds were prepared as a 200×DMSO dilution series then diluted to 1× in media immediately before adding to cells. Three days after compound addition, cell viability was measured using CellTiter-Glo reagent from Promega. Viability was calculated relative to a DMSO control and EC50 values are calculated in Prism GraphPad. […] The selectivity (SI) of the compounds described herein is a ratio of the EC50 of non-senescent cells to the EC50 of senescent cells. The SI of the compounds described herein is 10 or above for “A” selectivity, between 2 and 10 for “B” selectivity or 2 or less for “C” selectivity.

BCL-xL = BCL-xL (Homo sapiens, UniProt Q07817); test: BCL-binding assay (AlphaLISA competition, BAD peptide); conditions: 6xHis BCL-xL with biotinylated BAD peptide, 24 hr incubation
Description: as §1

Chain of BCL-xL (Q07817 whole entry, species assumed): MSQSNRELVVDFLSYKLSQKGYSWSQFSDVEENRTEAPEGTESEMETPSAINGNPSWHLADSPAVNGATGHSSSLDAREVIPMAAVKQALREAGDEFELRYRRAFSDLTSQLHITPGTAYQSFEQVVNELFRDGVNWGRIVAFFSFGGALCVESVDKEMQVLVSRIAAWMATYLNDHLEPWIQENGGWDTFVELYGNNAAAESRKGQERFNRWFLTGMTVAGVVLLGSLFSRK
Chain of BCL-2 (P10415 whole entry, species assumed): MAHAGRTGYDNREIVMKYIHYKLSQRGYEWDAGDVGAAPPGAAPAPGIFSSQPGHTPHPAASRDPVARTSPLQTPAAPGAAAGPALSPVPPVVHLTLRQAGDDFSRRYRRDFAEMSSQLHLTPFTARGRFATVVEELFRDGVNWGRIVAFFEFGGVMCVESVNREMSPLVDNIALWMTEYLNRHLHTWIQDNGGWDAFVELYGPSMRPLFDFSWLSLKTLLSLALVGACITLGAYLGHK

SMILES	Kd (BCL-2)	Kd (BCL-w)	EC50 [1]	SI (ratio of EC50 of non-senescent cells to EC50 of senescent cells) [1]	Kd (BCL-xL)
CCOP(=O)(CN1CCN(CC[C@H](CSc2ccccc2)Nc2ccc(S(=O)(=O)NC(=O)c3ccc(N4CCN(CC5=C(c6ccc(Cl)cc6)CCC(C)(C)C5)CC4)cc3)cc2S(=O)(=O)C(F)(F)F)CC1)OCC [Compound 6]	< 1 nM	1 to 10 nM	< 1000 nM	A (10 or above)	< 1 nM
CC1(C)CCC(c2ccc(Cl)cc2)=C(CN2CCN(c3ccc(C(=O)NS(=O)(=O)c4ccc(N[C@H](CCN5CCN(CP(=O)(O)O)CC5)CSc5ccccc5)c(S(=O)(=O)C(F)(F)F)c4)cc3)CC2)C1 [Compound 7]	< 1 nM	10 to 50 nM	> 10000 nM	B (between 2 and 10)	< 1 nM
CCOP(=O)(CCN1CCN(CC[C@H](CSc2ccccc2)Nc2ccc(S(=O)(=O)NC(=O)c3ccc(N4CCN(CC5=C(c6ccc(Cl)cc6)CCC(C)(C)C5)CC4)cc3)cc2S(=O)(=O)C(F)(F)F)CC1)OCC [Compound 9]	< 1 nM	1 to 10 nM	< 1000 nM	A (10 or above)	< 1 nM
CCOP(=O)(CCN(C)CC[C@H](CSc1ccccc1)Nc1ccc(S(=O)(=O)NC(=O)c2ccc(N3CCN(CC4=C(c5ccc(Cl)cc5)CCC(C)(C)C4)CC3)cc2)cc1S(=O)(=O)C(F)(F)F)OCC [Compound 10]	< 1 nM	1 to 10 nM	1000 to 10000 nM	A (10 or above)	< 1 nM
CCOP(=O)(O)CCN(C)CC[C@H](CSc1ccccc1)Nc1ccc(S(=O)(=O)NC(=O)c2ccc(N3CCN(CC4=C(c5ccc(Cl)cc5)CCC(C)(C)C4)CC3)cc2)cc1S(=O)(=O)C(F)(F)F [Compound 11]	< 1 nM	1 to 10 nM	> 10000 nM	C (2 or less)	< 1 nM
CN(CC[C@H](CSc1ccccc1)Nc1ccc(S(=O)(=O)NC(=O)c2ccc(N3CCN(CC4=C(c5ccc(Cl)cc5)CCC(C)(C)C4)CC3)cc2)cc1S(=O)(=O)C(F)(F)F)CCP(=O)(O)O [Compound 12]	< 1 nM	10 to 50 nM	> 10000 nM		< 1 nM
CC1(C)CCC(c2ccc(Cl)cc2)=C(CN2CCN(c3ccc(C(=O)NS(=O)(=O)c4ccc(N[C@H](CCN5CCN(CCP(=O)(O)O)CC5)CSc5ccccc5)c(S(=O)(=O)C(F)(F)F)c4)cc3)CC2)C1 [Compound 13]	< 1 nM	1 to 10 nM	> 10000 nM		< 1 nM
CCOP(=O)(O)CCN1CCN(CC[C@H](CSc2ccccc2)Nc2ccc(S(=O)(=O)NC(=O)c3ccc(N4CCN(CC5=C(c6ccc(Cl)cc6)CCC(C)(C)C5)CC4)cc3)cc2S(=O)(=O)C(F)(F)F)CC1 [Compound 14]	< 1 nM	1 to 10 nM	> 10000 nM		< 1 nM
CC(C)OP(=O)(CN1CCN(CC[C@H](CSc2ccccc2)Nc2ccc(S(=O)(=O)NC(=O)c3ccc(N4CCN(CC5=C(c6ccc(Cl)cc6)CCC(C)(C)C5)CC4)cc3)cc2S(=O)(=O)C(F)(F)F)CC1)OC(C)C [Compound 15]	< 1 nM	10 to 50 nM	1000 to 10000 nM	B (between 2 and 10)	< 1 nM
COP(=O)(CN1CCN(CC[C@H](CSc2ccccc2)Nc2ccc(S(=O)(=O)NC(=O)c3ccc(N4CCN(CC5=C(c6ccc(Cl)cc6)CCC(C)(C)C5)CC4)cc3)cc2S(=O)(=O)C(F)(F)F)CC1)OC [Compound 16]	< 1 nM	1 to 10 nM	< 1000 nM	A (10 or above)	< 1 nM
CCOP(=O)(CCCN1CCN(CC[C@H](CSc2ccccc2)Nc2ccc(S(=O)(=O)NC(=O)c3ccc(N4CCN(CC5=C(c6ccc(Cl)cc6)CCC(C)(C)C5)CC4)cc3)cc2S(=O)(=O)C(F)(F)F)CC1)OCC [Compound 23]	< 1 nM	1 to 10 nM	< 1000 nM	A (10 or above)	< 1 nM
COP(=O)(CCCN1CCN(CC[C@H](CSc2ccccc2)Nc2ccc(S(=O)(=O)NC(=O)c3ccc(N4CCN(CC5=C(c6ccc(Cl)cc6)CCC(C)(C)C5)CC4)cc3)cc2S(=O)(=O)C(F)(F)F)CC1)OC [Compound 24]	< 1 nM	1 to 10 nM	< 1000 nM	A (10 or above)	< 1 nM
CC1(C)CCC(c2ccc(Cl)cc2)=C(CN2CCN(c3ccc(C(=O)NS(=O)(=O)c4ccc(N[C@H](CCN5CCN(CCCP(=O)(Oc6ccccc6)Oc6ccccc6)CC5)CSc5ccccc5)c(S(=O)(=O)C(F)(F)F)c4)cc3)CC2)C1 [Compound 25]	< 1 nM	> 50 nM	> 10000 nM	C (2 or less)	1 to 10 nM
CCOP(=O)(CN1CCN(CC[C@H](CSc2ccccc2)Nc2ccc(S(=O)(=O)NC(=O)c3ccc(N4CCN(CC5=C(c6ccc(Cl)cc6)CCC(C)(C)C5)CC4)cc3)cc2S(=O)(=O)C(F)(F)F)CC1)OC(C)(C)C (stereo partly shown) [Compound 26]	> 50 nM	> 50 nM	> 10000 nM		10 to 50 nM
CC(C)OP(=O)(CCCN1CCN(CC[C@H](CSc2ccccc2)Nc2ccc(S(=O)(=O)NC(=O)c3ccc(N4CCN(CC5=C(c6ccc(Cl)cc6)CCC(C)(C)C5)CC4)cc3)cc2S(=O)(=O)C(F)(F)F)CC1)OC(C)C [Compound 27]	< 1 nM	1 to 10 nM	> 10000 nM	C (2 or less)	< 1 nM
CCOP(=O)(CN1CCN(CC[C@H](CSc2ccccc2)Nc2ccc(S(=O)(=O)NC(=O)c3ccc(N4CCN(CC5=C(c6ccc(Cl)cc6)CCC(C)(C)C5)CC4)cc3)cc2S(=O)(=O)C(F)(F)F)CC1)OCOC(=O)C(C)(C)C (stereo partly drawn) [Compound 28, (((4-((R)-3-((4-(N-(4-(4-((4′-Chloro-4,4-dimethyl-3,4,5,6-tetrahydro-[1,1′-biphenyl]-2-yl)methyl)piperazin-1-yl)benzoyl)sulfamoyl)-2-((trifluoromethyl)sulfonyl)phenyl)amino)-4-(phenylthio)butyl)piperazin-1-yl)methyl)(ethoxy)phosphoryl)oxy)methyl pivalate]	< 1 nM	10 to 50 nM	< 1000 nM	B (between 2 and 10)	1 to 10 nM
CCOP(=O)(CN1CCN(CC[C@H](CSc2ccccc2)N(c2ccc(S(=O)(=O)NC(=O)c3ccc(N4CCN(CC5=C(c6ccc(Cl)cc6)CCC(C)(C)C5)CC4)cc3)cc2S(=O)(=O)C(F)(F)F)S(C)(=O)=O)CC1)OCC [Compound 29]	10 to 50 nM	> 50 nM	1000 to 10000 nM	C (2 or less)	10 to 50 nM
CCOP(=O)(O)CN1CCN(CC[C@H](CSc2ccccc2)N(c2ccc(S(=O)(=O)NC(=O)c3ccc(N4CCN(CC5=C(c6ccc(Cl)cc6)CCC(C)(C)C5)CC4)cc3)cc2S(=O)(=O)C(F)(F)F)S(C)(=O)=O)CC1 [Compound 30]	1 to 10 nM	> 50 nM	1000 to 10000 nM		1 to 10 nM
CCOP(=O)(O)CC1CCN(CC[C@H](CSc2ccccc2)Nc2ccc(S(=O)(=O)NC(=O)c3ccc(N4CCN(CC5=C(c6ccc(Cl)cc6)CCC(C)(C)C5)CC4)cc3)cc2S(=O)(=O)C(F)(F)F)CC1 [Compound 49, Ethylhydrogen((1-((R)-3-((4-(N-(4-(4-((4′-chloro-4,4-dimethyl-3,4,5,6-tetrahydro-[1,1′-biphenyl]-2-yl)methyl)piperazin-1-yl)benzoyl)sulfamoyl)-2-((trifluoromethyl)sulfonyl)phenyl)amino)-4-(phenylthio)butyl)piperidin-4-yl)methyl)phosphonate]	< 1 nM	1 to 10 nM			< 1 nM
